Molecules are shown by their SMILES.

This assay relates to E0771 tumors. Kind of assay: Immune cells infiltrated into E0771 tumors (wild type, sh control, sh LXR) after DDA, flow cytometry. In kind it is in vivo, mouse. An excerpt: FIGS. 14A-D. […] mice were grafted subcutaneously with 300 000 E0771 tumor cells knocked down for the LXR (E0771 sh LXR) or with control cells (E0771 Sh control). […] 15 days post DDA treatment, the tumor cells were collected to assess by flow cytometry the CD4 Th1 cells (CD4+ Tbet+), CD4 T regulatory (Treg: CD4+ Foxp3+), CD8 T cells cytotoxic (CTL: CD8+ granzyme +)) or not (non CTL: CD8+ Granzyme −), macrophage M1 (F4/80+ CD206− CD86+) and M2 (F4/80+ CD206+ CD86−), dendritic cells CD11c+, CD11c+CD8α+ and myeloid derived suppressive cells (MDSC: CD11b+CD11clow, LY6C+ly6Gint) infiltrated into the tumors. To observe the cytotoxic CD8 T cells, the tumor suspension was prealably stimulated 2 h in vitro with a cocktail of PMA (50 ng/ml), ionomycine (500 ng/ml) and golgistop (concentration from manufacture BD Pharmagen), then the cells were stained with specific antibodies. The bars graphs represent the ratio between (A) Th1 and Treg, (B) CTL and non CTL, (C) M1 and M2 and (D) Alls DCs (CD11c+ and CD11c+ CD8α+) and MDSC infiltrated inside the tumors: E0771 sh control or E0771 Sh LXR (knocked down for LXRβ) from mice treated or not with DDA at 0.37 ug/kg. In cells expressing the LXRβ (E0771 shcontrol cells), DDA increases the infiltration of activated immune cells (Th1, CTL, macrophages M1 and DC) and decreases the infiltration of immunosuppressives cells (Treg, non CTL, M2 and MDSC).
FIGS. 15A-D. DDA treatment decreases the percentage of T regulatory CD4 T cells and increases the activated CD4+ and CD8+ T cells inside tumors. […] When tumors were palpable (50 mm3), the animals were treated with the vehicle (empty symbol) or s.c. 0.37 μg/kg of DDA (full symbol) every 2 days, once a day. […] post treatment, the animals were sacrified to collect the tumors. The tumors were dissociated by using gentlemac technology (Miltenyi) and then the suspension of tumor cells were stimulated with 50 ng/ml of PMA (Sigma), 500 ng/ml Ionomycin (Sigma) and 1/1000 of golgi stop (ebiosicence) during 3 h at 37° C. Tumor infiltrated Lymphocytes (TIL) isolated from E0711 tumors were stained with antibodies against CD45, CD8, CD4, PD-1, Foxp3, T-bet, IFN-g, Granzym B, PD-1 as well as live/dead stain. By gating on CD45+CD4+ (A-B) or CD45+CD8+ T cells populations (C-D), the tumor-infiltrating (A) T regulatory cells (Treg; Foxp3+), (B) effector CD4+ cells (Th1; T-bet+) and (C) cytotoxic CD8 T cells (CTL; IFN-γ+Granzym B+) were analyzed by flow cytometry. The vehicle condition is normalized at 1 and the graphs are representative of three independent experiments. (D). The graph represents the percentage of PD-1 negative CD8+ cells inside tumors of mice treated with vehicle or DDA and is representative of three independent experiments.
FIGS. 17A-D. The silencing of LXRβ in tumor affects the effects of DDA on T regulatory and cytotoxic CD8+ T cells population infiltrated inside tumor. Animals grafted with E0711 tumors expressing the LXRβ (square symbol) or knockdown for the LXRβ expression (circle symbol) treated in FIG. 2 were sacrified to collect tumors, 15 days post treatment with the vehicle (empty symbol) or 0.37 μg/kg of DDA (full symbol). The tumor were dissociated by using gentlemac technology (Miltenyi), and the suspension of tumor cells obtained were stimulated with 50 ng/ml of PMA (Sigma), 500 ng/ml Ionomycin (Sigma) and 1/1000 of golgi stop (ebiosicence) during 3 h at 370 to analyze by flow cytometry the phenotype of tumor-infiltrated lymphocytes. By gating on CD45+CD4+ (A-B) or CD45+CD8+ T cells populations (C-D) as well as live/dead stain, the tumor-infiltrating (A) T regulatory cells (Treg; Foxp3+), (B) effector CD4+ cells (Th1; T-bet+) and (C) cytotoxic CD8 T cells (CTL; IFN-γ+Granzym B+) were determined.

Setting [1] is: E0771 shcontrol, 0.37 μg/kg DDA every 2 days, 15 days (FIG. 14).
Setting [2] is: decrease expression of LXRB into the tumors (FIG. 17).
The mark [3] stands for this setting: tumors expressing LXRβ, 0.37 μg/kg DDA, 15 days (FIG. 17).
Setting [4] is: wild type E0771, s.c. 0.37 μg/kg DDA every 2 days (FIG. 15).

As for `CC(C)CCCC(C)[C@H]1CCC2C3C[C@@H](NCCc4cnc[nH]4)[C@@]4(O)C[C@@H](O)CC[C@]4(C)C3CC[C@@]21C` (stereo partly drawn) [DDA, 5a-hydroxy-6b-[2-(1H-imidazol-4-yl)ethylamino]cholestan-3b-ol], where the note is “0.37 μg/kg DDA (FIG. 18)”, the “number of macrophages M1 infiltrated into the tumors” value was “increases”. In addition, under “0.37 μg/kg DDA (FIG. 19)”, the “ratio of dendritic cells CD11+ versus MDSC” value is “increases”. In addition, the “effect of DDA on immune cell infiltration” value (E0771 shLXR cells (FIG. 14)) is recorded as “significantly decreased”. Under setting [1], the “infiltration of activated immune cells (Th1, CTL, macrophages M1 and DC)” value was “increases”; the “infiltration of immunosuppressives cells (Treg, non CTL, M2 and MDSC)” value is given as “decreases”. Under setting [2], the “effect of DDA on T regulatory cells infiltrated into the tumors” value was “abolished”, the “effect of DDA on activated cytotoxic CD8+ T cells infiltrated into the tumors” value is reported as “abolished” and the “influence of decreased LXRB expression on DDA effect on effector Th1CD4+” value is listed as “had no effect”. Where the note is “shLXRβ vs LXRβ expressing tumors (FIG. 18)”, the “LXRβ dependence of effect on macrophages M2” value is on record as “independent of the LXRβ”. Under setting [3], the “number of T regulatory cells infiltrated into the tumors” value was “decreases”, the “number of activated cytotoxic CD8+ T cells infiltrated into the tumors” value is reported as “increases” and the “number of effector Th1CD4+ cells infiltrated into the tumors” value is given as “increases”. Under setting [4], the “activated CD4+ T cells inside tumors” value is given as “increases”, the “activated CD8+ T cells inside tumors” value is on record as “increases” and the “number of T regulatory CD4 T cells inside tumors” value is recorded as “decreases”.
